Target: T1, Seed linoleate 13S-lipoxygenase-1 (Glycine max, UniProt P08170)
T1 sequence (P08170 whole entry): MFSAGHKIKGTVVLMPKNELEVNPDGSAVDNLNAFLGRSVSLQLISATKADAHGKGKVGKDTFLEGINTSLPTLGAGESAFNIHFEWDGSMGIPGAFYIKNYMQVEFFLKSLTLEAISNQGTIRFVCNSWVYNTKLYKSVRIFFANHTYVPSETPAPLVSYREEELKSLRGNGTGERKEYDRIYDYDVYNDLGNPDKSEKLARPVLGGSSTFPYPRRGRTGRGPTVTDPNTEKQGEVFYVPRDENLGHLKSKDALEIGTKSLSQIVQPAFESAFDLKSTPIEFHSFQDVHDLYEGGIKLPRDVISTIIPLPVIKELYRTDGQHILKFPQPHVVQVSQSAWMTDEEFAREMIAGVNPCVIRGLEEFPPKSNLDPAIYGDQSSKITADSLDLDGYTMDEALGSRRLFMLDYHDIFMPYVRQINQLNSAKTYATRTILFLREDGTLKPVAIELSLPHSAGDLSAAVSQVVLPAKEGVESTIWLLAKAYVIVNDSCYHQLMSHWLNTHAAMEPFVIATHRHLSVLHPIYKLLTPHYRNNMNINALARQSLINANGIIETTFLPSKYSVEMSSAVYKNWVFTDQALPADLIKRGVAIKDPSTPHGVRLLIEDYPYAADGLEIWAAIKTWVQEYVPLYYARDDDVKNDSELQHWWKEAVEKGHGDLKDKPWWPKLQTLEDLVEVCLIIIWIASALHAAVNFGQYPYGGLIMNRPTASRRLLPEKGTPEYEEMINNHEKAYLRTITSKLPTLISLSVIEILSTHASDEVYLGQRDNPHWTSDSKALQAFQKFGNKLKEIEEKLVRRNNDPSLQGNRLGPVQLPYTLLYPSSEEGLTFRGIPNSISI
Assay: 15LO Inhibition Assay
Settings: pH 7; 25 °C
Description: Linoleic acid and two assay solutions (A and B) were prepared in advance. Solution A was 50 mM 3-(dimethylamino)benzoic acid (DMAB) in a 100 mM phosphate buffer (pH 7.0). Solution B was a mixture of 10 mM 3-methyl-2-benzothiazolinone (MBTH) 3 mL, hemoglobin (5 mg/mL, 3 mL) in 50 mM phosphate buffer at pH 5.0 (25 mL). A linoleic acid solution was prepared by mixing 5 mg of linoleic acid with 50 mg Tween-20 in 3 mL water and then diluting with KOH 100 mM to a final volume of 5 mL. In the standard assay, the sample in ethanol ([…]), soybean 15-lipo-oxygenase (SLO) (4000 units/mL in 50 mM phosphate buffer pH 7.0; […]) and phosphate buffer pH 7.0 (50 mM; […]) were mixed in a test-tube, and preincubation was carried out for 5 min at room temperature. A control test was done with the same volume of ethanol. After the preincubation, linoleic acid solution […] was added to start the peroxidation reaction, and 7 min later,solution A […] and then solution B […] was added to

CCN1CCN(c2nc(C)c(Br)c(Sc3nnc(Sc4nc(N5CCN(CC)CC5)nc(C)c4Br)n3N)n2)CC1 [3,5-bis((5-bromo-6-methyl-2-(4-ethylpiperazin-1-yl)pyrimidin-4-yl)thio)-4H-1,2,4-triazol-4-amine (4f)] and Cc1nc(N2CCN(C)CC2)nc(Sc2nnc(Sc3nc(N4CCN(C)CC4)nc(C)c3Br)n2N)c1Br [3,5-bis((5-bromo-6-methyl-2-(4-methylpiperazin-1-yl)pyrimidin-4-yl)thio)-4H-1,2,4-triazol-4-amine (4d)] are within 1.5-fold of each other in IC50: 12 µM for the first, 9 µM for the second.

Cc1nc(N2CCC(C)CC2)nc(Sc2nnc(Sc3nc(N4CCC(C)CC4)nc(C)c3Br)n2N)c1Br [3,5-bis((5-bromo-6-methyl-2-(4-methylpiperidin-1-yl)pyrimidin-4-yl)thio)-4H-1,2,4-triazol-4-amine (4c)] and Cc1nc(N2CCCC2)nc(Sc2nnc(Sc3nc(N4CCCC4)nc(C)c3Br)n2N)c1Br [3,5-bis((5-bromo-6-methyl-2-(pyrrolidin-1-yl)pyrimidin-4-yl)thio)-4H-1,2,4-triazol-4-amine (4g)] cannot be ordered by IC50: greater than 500 µM for the first, greater than 500 µM for the second.

Cc1nc(N2CCOCC2)nc(Sc2nnc(Sc3nc(N4CCOCC4)nc(C)c3Br)n2N)c1Br [3,5-bis((5-bromo-6-methyl-2-morpholinopyrimidin-4-yl)thio)-4H-1,2,4-triazol-4-amine (4a)] and Cc1nc(N2CCCCC2)nc(Sc2nnc(Sc3nc(N4CCCCC4)nc(C)c3Br)n2N)c1Br [3,5-bis((5-bromo-6-methyl-2-(piperidin-1-yl)pyrimidin-4-yl)thio)-4H-1,2,4-triazol-4-amine (4b)] cannot be ordered by IC50: greater than 500 µM for the first, greater than 500 µM for the second.

Work on Cc1nc(N2CCN(c3ccccc3)CC2)nc(Sc2nnc(Sc3nc(N4CCN(c5ccccc5)CC4)nc(C)c3Br)n2N)c1Br [3,5-bis((5-bromo-6-methyl-2-(4-phenylpiperazin-1-yl)pyrimidin-4-yl)thio)-4H-1,2,4-triazol-4-amine (4e)] yielded an IC50 greater than 500 µM.

— BindingDB's records for doi:10.1111/cbdd.12375 (Ferdowsi University of Mashhad, 2015)
